The subject of experiment [1] is murine microglia BV-2 cells. Nature of the experiment: NO release by LPS-activated BV-2 microglia (Griess test). It counts as cell-based. To be noted: 0.1 μg/ml LPS overnight; for effect on release of NO into the culture medium (FIG. 1): PS 10 and 30 μM, curcumin 2.5 and 5 μM. The method, then: PS (sodium salt), produced and purified according to EP1890706 (example 3), was resuspended in 2:1 chloroform/methanol, dried by evaporation and resuspended in PBS at the final concentration of 100 μM. 95% pure curcumin, prepared in DMSO at the final active ingredient concentration of 20 mM, was used for this experiment.
An in vitro glial activation model using the murine microglia BV-2 cell line was selected for this experiment:
50,000 cells/well were initially seeded in 96-well plates and cultured in DMEM containing 10% FCS, glutamine and antibiotics at 37° C. If activated with LPS (lipopolysaccharide, an endotoxin of Gram-negative bacterial, normally used as pro-inflammatory stimulus both in vitro and in vivo), these cells release NO into the culture medium; the experiment therefore involved stimulating them with 0.1 μg/ml LPS overnight in the presence or absence of PS (10 and 30 μM) or curcumin (2.5 and 5 μM) at different concentrations.
Finally, to evaluate the synergy between the two active constituents, the PS/curcumin combination was tested in the presence of LPS 0.1 μg/ml (as described above):
10 μM PS+2.5 μM curcumin, and
The final NO content in the medium was measured with the Griess test: briefly, aliquots of medium were mixed with equal volumes of Griess reagent (0.1% N(1-naphthyl)ethylenediamine dihydrochloride, 1% sulphanylamide and 0.4M HCl). After 15 minutes' reaction, the absorbance was measured at 570 nm.
Background: The Griess reaction detects nitrite, a stable product of nitric oxide.

The test system of experiment [2] is neural progenitor cells (NPCs). Nature of the experiment: Neuronal differentiation (βIII tubulin) of NPCs exposed to medium of LPS-activated microglia. It counts as cell-based, mice. To be noted: alone, 1 and 5 μM; NPCs with medium of LPS-activated microglia, 6 days. The method, then:
Cultures of stem cells/neural progenitor cells (NPCs) obtained from the subventricular zone of adult mice were used. The NPCs were cultured under conditions of differentiation by mechanical dissociation of the neurospheres and seeding of the individual cells on plates coated with poly-ornithine and laminin in a culture medium only containing factor bFGF, according to state-of-the-art techniques.
The NPC cultures thus obtained were divided into aliquots, each of which was treated differently, as follows:
b) treatment a) and PS and curcumin administered separately at different concentrations;
c) treatment a) and PS/curcumin combined at different relative concentrations.
The control was represented by untreated NPC cells.
Neuronal differentiation was evaluated after 6 days, by immunocytochemical analysis with antibodies directed against the specific marker βIII tubulin, extrapolating the % concentration of protein present in the medium.

A further experiment concerns microglia BV-2 cells. The experiment can be described thus: IL-1β release from LPS-stimulated BV-2 cells (ELISA). The class given is cell-based, murine. To be noted: administered individually, 0.1 μg/ml LPS 16 hours; for inhibition of IL-1β release (FIG. 4): 1 μM or 5 μM; for inhibition of IL-1β release at the higher concentration (FIG. 4): 5 μM. The method, then: The experiment was conducted in two steps, and was designed to evaluate the effect on in vitro release of IL-1β from microglia BV-2 cells stimulated with LPS after administration of PS and curcumin. IL-1β is a cytokine strongly involved in the inflammatory processes underlying both osteoarticular disorders and neurodegeneration.
Murine microglial BV-2 cells were stimulated as described in Example 3 (0.1 μg/ml LPS for 16 hours) and then treated with PS and curcumin at the concentration of 1 μM or 5 μM. The IL-1β levels were determined by ELISA assay. The control (CTRL) was represented by cells stimulated with LPS but not treated.
At the second stage of the experiment the effects of the combination of the two substances were evaluated on the same parameter according to the same protocol.
Background: An ELISA detects its analyte on a solid surface through an enzyme-linked reagent.

We go through 2 compounds from patent US9381204B2, “Pharmaceutical compositions containing phosphatidylserine and curcumin” (FIDIA FARMACEUTICI S.P.A., priority 2012, dated 2016).

For the compound `COc1cc(C=CC(=O)CC(=O)C=Cc2ccc(O)c(OC)c2)ccc1O` [curcumin, 1,7-bis[4-hydroxy-3-methoxyphenyl]-1,6-heptadiene-3,5-dione], the inhibition at 5 µM in experiment [1] (Mus musculus, single treatment of 5 μM curcumin, read-out: inhibition of NO release into the culture medium) is less than 20%. In addition, the “effect on release of NO into the culture medium (FIG. 1)” value in experiment [1] is “inhibit the release of NO into the medium in a dose-dependent manner”. Further, the “percentage of cells positive to βIII tubulin (FIG. 6)” value in experiment [2] is “did not differ significantly from that observed in the presence of LPS alone”. Moreover, in the experiment on microglia BV-2 cells, the “inhibition of IL-1β release (FIG. 4)” value is recorded as “neither PS nor curcumin, administered individually, significantly inhibits the release of IL-1β” and the “inhibition of IL-1β release at the higher concentration (FIG. 4)” value was “limited effect”.

As for phosphatidylserine [PS], in experiment [1], the “effect on release of NO into the culture medium (FIG. 1)” value is recorded as “inhibit the release of NO into the medium in a dose-dependent manner”. Besides, the “inhibition of NO release into the culture medium” value in experiment [1] (single treatment of 10 μM PS) is on record as not above 10%. For the same compound, in experiment [2], the “percentage of cells positive to βIII tubulin (FIG. 6)” value is listed as “did not differ significantly from that observed in the presence of LPS alone”. For the same compound, in the experiment on microglia BV-2 cells, the “inhibition of IL-1β release (FIG. 4)” value was “neither PS nor curcumin, administered individually, significantly inhibits the release of IL-1β” and the “inhibition of IL-1β release at the higher concentration (FIG. 4)” value is listed as “limited effect”.

As a reminder, the inhibition is the relative decrease from the control value, in per cent.
